# Data from publication PMC10545732, “Structure-based drug discovery of a corticotropin-releasing hormone receptor 1 antagonist using an X-ray free-electron laser” (Experimental & Molecular Medicine, 2023).
# “Also recorded” adds a separate entry of the source.
# Experiments:
# [1] = Microsomal stability assay, rat liver microsomes; format: in vitro ADME; conditions: 1 μM, n = 3
# Method: The incubation mixtures consisted of 0.5 mg/mL human (Corning, #452117) and rat liver microsomes (Corning, #452701), 0.1 M phosphate buffer (pH 7.4), NADPH regeneration system, and substrates (CRF1R antagonist compounds, 1 µM) in a total volume of 100 μL. […] LC‒MS/MS was performed on a TSQ Vantage (Thermo, USA) coupled with a Nexera XR LC system (Shimadzu, Japan)[32]. The separation was performed on a Kinetex C18 column (2.1 × 100 mm, 2.6 µm, Phenomenex, USA) using a mobile phase of 0.1% formic acid and acetonitrile containing 0.1% formic acid. A gradient program was used for elution at a flow rate of 0.3 mL/min. The data were acquired using multiple-reaction monitoring (MRM) in positive mode. Detection of the ions was performed by monitoring the m/z transition of 494.1 → 336.1 for BMK-I-152, 598.1 → 233.2 for BMK-C203, and 488.1 → 434.1 for BMK-C205.
# [2] = tested on: C57BL/6J mice; experiment: Open field test (OFT); format: in vivo; conditions: 30 mg/kg orally for 3 days, 1 h open field
# Method: C57BL/6J mice (male, 9–10 weeks old) were used for the behavioral tests. All mice were maintained under a 12:12-h light–dark cycle (lights on at 7:00 A.M.) with access to food and water ad libitum. Animal care and handling were performed according to guidelines by the Institutional Animal Care and Use Committee of Yonsei University (Seoul, Korea). Antalarmin, BMK-C203, and BMK-C205 were dissolved in peceol: TPGS: PEG400 (vehicle) (70%:20%:10%, respectively) and administered orally at a dose of 30 mg/kg for 3 days at 24-h intervals. All behavioral tests were conducted 2 h after the third drug was administered during light periods of the circadian cycle. TSTs were performed to verify the effect of CRF1R antagonists on depressive-like behavior. Each mouse was suspended by its tail on a bar 30 cm above the ground for 6 min using adhesive tape. Their movements were recorded by a camera and analyzed using the same parameters via EthoVision XT 8.5 software (Noldus Technologies). Immobility times during the last 4 min of the task were measured. Each mouse was placed in an open field (40 cm × 40 cm × 40 cm chamber) for 1 h to conduct an open field test (OFT) and test locomotion. Their locomotion was recorded and analyzed using EthoVision XT 8.5.
# [3] = target: T1, CYP1A2 (Homo sapiens, UniProt P05177); experiment: CYP inhibition assay CYP1A2 (phenacetin O-demethylase); format: in vitro ADME; conditions: 10 μM, human liver microsomes, n = 3
# T1 construct: 0.25 mg/mL human liver microsomes; from tissue; host or cells: human liver microsomes
# T1 sequence (P05177 1-516): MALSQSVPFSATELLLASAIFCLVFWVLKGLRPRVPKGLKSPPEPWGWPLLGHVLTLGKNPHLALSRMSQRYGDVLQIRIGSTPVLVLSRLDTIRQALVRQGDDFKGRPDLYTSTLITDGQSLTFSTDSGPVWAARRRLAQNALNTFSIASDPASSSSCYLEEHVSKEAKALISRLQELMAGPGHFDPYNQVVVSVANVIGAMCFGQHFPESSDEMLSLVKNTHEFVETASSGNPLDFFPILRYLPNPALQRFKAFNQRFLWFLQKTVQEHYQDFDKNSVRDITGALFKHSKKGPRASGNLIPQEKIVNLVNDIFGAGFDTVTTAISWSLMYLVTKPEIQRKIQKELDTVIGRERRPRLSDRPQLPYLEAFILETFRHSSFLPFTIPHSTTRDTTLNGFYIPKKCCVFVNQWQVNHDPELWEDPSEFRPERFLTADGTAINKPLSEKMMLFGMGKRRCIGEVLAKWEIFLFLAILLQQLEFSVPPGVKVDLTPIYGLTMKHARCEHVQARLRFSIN
# Method: (§1) Phenacetin O-demethylase, diclofenac 4-hydroxylase, S-mephenytoin 4-hydroxylase, dextromethorphan O-demethylase, and midazolam 1’-hydroxylase activities were determined as probe activities for CYP1A2, CYP2C9, CYP2C19, CYP2D6, and CYP3A4, respectively, using cocktail incubation. […] The cocktail incubation mixtures consisted of 0.25 mg/mL human liver microsomes, 0.1 M phosphate buffer (pH 7.4), an NADPH regeneration system, and inhibitors (CRF1R antagonist compounds, 10 µM) in a total volume of 100 μL. The final volume of the organic solvents in the incubation mixture was 1% (v/v). […] All incubations were performed in triplicate, and the mean values were used for analysis. The samples were then centrifuged at 15,000 rpm for 5 min at 4 °C. […] The CYP-mediated activities in the presence of inhibitors were expressed as percentages of the corresponding control values.
# [4] = target: CYP3A4 (Homo sapiens, UniProt P08684); experiment: CYP inhibition assay CYP3A4 (midazolam 1'-hydroxylase); conditions: 10 μM, human liver microsomes, n = 3
# Method: as §1
# [5] = target: T2, CRF1R (Homo sapiens, UniProt P34998); experiment: Calcium mobilization assay (hCRF1R Ca2+ antagonism); format: cell-based; conditions: for IC50: HEK-Gα15 cells transfected with CRF1R, urocortin 2 nM, n = 3
# T2 construct: HEK-Gα15 cells (Eurofins Scientific) transfected with CRF1R; host or cells: HEK-Gα15 cells
# T2 sequence (P34998 24-415): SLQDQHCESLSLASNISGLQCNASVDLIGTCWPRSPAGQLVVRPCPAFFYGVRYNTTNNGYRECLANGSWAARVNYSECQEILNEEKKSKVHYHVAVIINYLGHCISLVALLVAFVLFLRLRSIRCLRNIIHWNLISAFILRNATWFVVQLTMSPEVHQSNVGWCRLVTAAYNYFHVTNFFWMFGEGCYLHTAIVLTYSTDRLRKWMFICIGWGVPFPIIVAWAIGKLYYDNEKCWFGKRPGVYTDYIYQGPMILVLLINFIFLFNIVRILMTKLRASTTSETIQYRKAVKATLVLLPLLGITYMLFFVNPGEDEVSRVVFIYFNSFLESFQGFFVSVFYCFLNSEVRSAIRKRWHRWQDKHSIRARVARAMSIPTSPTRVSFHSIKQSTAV
# Method: HEK-Gα15 cells (Eurofins Scientific) transfected with CRF1R were plated in 96-well plates at a density of 50,000 cells/100 μL per well and incubated overnight. The next day, the cells were incubated with a Calcium 6 reagent (Molecular Devices) containing 0.5 mM probenecid (Sigma) at 37 °C for 1 h before adding compounds or dimethyl sulfoxide DMSO (positive and negative control; final concentration 0.1%). After incubation at 37 °C for 1 h, 50 μL urocortin (final concentration 2 nM) (Tocris) was dispensed into the well with FLIPR-tetra (Molecular Devices). […] Intracellular calcium changes were recorded at excitation and emission wavelengths of 470–495 and 515–575 nm, respectively. Relative fluorescence units (RFU) were calculated as the fluorescence signal maximum minus the signal minimum for 30 s after addition. The graphs and IC50 concentrations were calculated using GraphPad Prism 6 software.
# [6] = Microsomal stability assay, human liver microsomes; format: in vitro ADME; conditions: for Liver microsomal stability, Human (percentage remaining after 30 min): 1 μM, n = 3; for metabolic stability improved by: human and rat liver microsomes, 30 min
# Method: LC‒MS/MS was performed on a TSQ Vantage (Thermo, USA) coupled with a Nexera XR LC system (Shimadzu, Japan)[32]. The separation was performed on a Kinetex C18 column (2.1 × 100 mm, 2.6 µm, Phenomenex, USA) using a mobile phase of 0.1% formic acid and acetonitrile containing 0.1% formic acid. A gradient program was used for elution at a flow rate of 0.3 mL/min. The data were acquired using multiple-reaction monitoring (MRM) in positive mode.
# Sequence of CYP3A4 (P08684 whole entry): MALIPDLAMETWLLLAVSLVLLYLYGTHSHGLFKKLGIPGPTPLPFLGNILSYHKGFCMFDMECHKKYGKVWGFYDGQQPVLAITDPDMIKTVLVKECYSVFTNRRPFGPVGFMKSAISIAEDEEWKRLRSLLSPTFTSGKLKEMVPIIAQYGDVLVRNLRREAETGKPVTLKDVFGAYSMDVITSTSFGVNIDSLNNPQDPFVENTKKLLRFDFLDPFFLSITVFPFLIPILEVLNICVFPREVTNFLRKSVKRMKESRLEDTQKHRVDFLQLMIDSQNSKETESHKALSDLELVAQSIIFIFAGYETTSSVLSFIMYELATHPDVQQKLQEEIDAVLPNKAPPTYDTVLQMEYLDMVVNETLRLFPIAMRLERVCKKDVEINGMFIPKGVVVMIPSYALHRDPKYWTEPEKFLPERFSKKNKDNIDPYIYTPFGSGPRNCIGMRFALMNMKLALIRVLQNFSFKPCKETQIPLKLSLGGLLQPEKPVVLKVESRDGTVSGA
SMILES,"Liver microsomal stability, Rat (percentage remaining after 30 min) [1] [%]",OFT locomotion / overall moving distance [2],"CYP1A2, percentage of control activity [3]","CYP3A4, percentage of control activity [4]",IC50 [5] [nM],"Liver microsomal stability, Human (percentage remaining after 30 min) [6] [%]",metabolic stability improved by [6],IC50 relative to BMK-C203 ([5]; hCRF1R Ca2+ antagonism assay)
COc1cc(Br)cc(OC)c1-c1c(C)nn2c(N(CCCC(F)(F)F)CCCC(F)(F)F)nc(C)nc12 [BMK-C203],97.1 ± 8.81,did not differ among groups,95.6 ± 2.9 percentage of control activity,90.5 ± 2.9 percentage of control activity,280,88.3 ± 16.71,more than 90%,–
CCCCN(CC1CC1)c1nc(C)nc2c(-c3c(OC)cc(Br)cc3OC)c(C)nn12 [BMK-C205],89.4 ± 2.07,did not differ among groups; also recorded: no differences,> 100 ± 4.2 percentage of control activity,> 100 ± 6.2 percentage of control activity,74,88.0 ± 4.50,more than 90%,fourfold lower
